From patent US8575376B2, “Steroide anionic compounds, method of their production, usage and pharmaceutical preparation involving them” (Ustav Organicke Chemie A Biochemie Akademie Ved Ceske …, priority 2009, dated 2013)
Entries after “also recorded” stand apart in the source; their conditions may differ.

Columns and labels:
mice (ICR) = assay: Depression-like behavior induced by repeated social defeat, open field; assay type: in vivo, mouse; details: 1 and 10 mg/kg orally, 30 min prior
Experimental: Naive adult male mice (albino out-bred strain ICR, VELAZ s.r.o., Prague, Czech Republic, 30-37 g) were used in this study. Food and water were available ad libitum. Mice were housed either individually without any handling in self-cleaning cages with a grid floor (8×6×13 cm) or in groups of 17-20 in standard plastic cages (38×22×14 cm) with the floors covered with wooden shavings. After 3 weeks, each individually housed mouse was allowed 30 min adaptation in a Plexiglas neutral observation cage (20×20×30 cm) with clean wooden shavings before it was coupled with a group-housed male partner for 4 min/day. […] Animals were housed, and behavioural testing was performed in a different room during the light phase of the constant light-dark cycle with lights on at 6:00 and off at 18:00 h. Temperature was maintained at 21° C., and relative humidity was 50%. The mice were not handled except on the experimental days.
Group-housed males were used for the experiment. […] Over a 3-min testing period, the distance traveled, as a marker of locomotor/exploratory behaviour, in the open field was measured. […] Thirty minutes following the drug administration, the animal was placed into the open field arena and distance traveled was measured, as described before. […]

Long-Evans male rats = assay: Acute toxicity in rat; assay type: in vivo
Experimental: Toxicity of compound from example 9 was tested on 2-month-old Long-Evans male rats. Animals were randomly assigned to 4 groups per 7 animals each. The first group was injected i.p. with saline, the second group received i.p. cyclodextrine, the third group obtained received the compound from example 9 at a dose 1 mg/kg (dissolved in β-cyclodextrine) and the last group compound from example 9 at a dose 100 mg/kg (dissolved in β-cyclodextrine). Animals were monitored for the period of 5 days. At the end of the experiment macroscopic dissection was carried out and organs were weighted (brain, heart, liver, spleen and kidneys). Animals' weight, food and water consumption was monitored daily. At the same time the behavior and locomotor activity was observed and animals were inspected for detection of effusions, constipation, etc.

rats = assay: Footshock-induced ultrasonic vocalization (anxiety); assay type: in vivo, rat
Experimental: Effect of compound from example 9 application at doses of 0.001 mg/kg, 0.01 mg/kg and 10 mg/kg on ultrasonic vocalization after exposure to stressful situation (foot-shock) as a measure of anxiety. Under conditions of stress and pain, rats are known to emit ultrasonic distress calls at a frequency of about 22 kHz. On the first day, rats were placed into the shock chamber individually and after 30 s of habituation, they received 6 inescapable electric foot-shocks (1 shock/1 minute, 1 mA) of 10 seconds duration. The procedure was repeated 24 hours later, but this time, the animals received only one 10-second shock. Afterwards, the rats were injected i.p. with vehicle (b-cyclodextrine) or the compound from example 9 at doses of 0.001, 0.01, and 10 mg/kg) 30 min prior to testing. During the test session, animals were placed into the shock chamber for 10 minutes and their ultrasonic vocalization was recorded. […] Each animal was recorded separately with a Mini-3 Bat Detector (Ultra Sound Advice, London, UK). Ultrasonic vocalizations at 22-kHz consisting of calls with a minimal duration of 300 ms were recorded and analyzed by UltraVox 2.0 program (Noldus, Wageningen, The Netherlands). The total number of vocalization events and their total duration were recorded.

Long-Evans rats = assay: Learned helplessness model of affective disorders; assay type: in vivo, rat; details: 1 mg/kg i.p. after inescapable shocks, tested 24 h later, p<0.01 vs LH group
Experimental: Male Long-Evans rats weighing 350-450 g were used. Animals were housed in groups in an air-conditioned room with 12 h/12 h light/dark cycle with the lights on at 7 a.m. Water and food were available ad libitum. Animals were randomly assigned to 3 groups—control group (received no shocks), learned helplessness group (received shocks) and experimental group (received shocks and injection of compound from example 9). An experimental set-up was composed of two chambers separated by a sliding door. The transparent shock chamber (48×20×20 cm) with one entrance led to the dark chamber (25×15×15 cm) made of black plexiglass. The floor of the shock chamber consisted of metal rods. Shocks were delivered through the grid floor. A shock generator (Data acquisition MF624 multifunction I/O board for PCI, Humusoft Ltd., Czech Republic) was connected to and controlled by a computer. On the pre-treatment day rats were individually placed into the apparatus for 10-minute habituation period. The sliding door separating two chambers was removed allowing free movements between the compartments. Immediately after the habituation rats were confined to the shock chamber for 1 hour. Inescapable shocks (72 V) of 10 s duration were delivered at 50 s intervals. Afterwards animals were injected i.p. with compound from example 9 in dose of 1 mg/kg. […] The number of escapes was recorded. […]

C6 glioma cell line = assay: Growth of glioma cells in culture; assay type: cell-based; details: 0.1 and 1 μg in 50 ml β-cyclodextrine solution, 3 div + 6 days
Experimental: The effect of compound from the example 9 (the model molecule) on growth of glioma cells was studied on C6 glioma cell line (ATTC, Rockville). The model molecule was tested at doses of 0.1 and 1 μg dissolved in 50 ml of β-cyclodextrine solution. Parallel control groups were administered by cholesterol at doses of 0.1 and 1 μg dissolved in 50 ml of β-cyclodextrine solution. The last group included in the experiment was left intact without any application.
The cells were cultivated in vitro for 3 days (div). Afterwards tested molecule was applied and the cell culture was studied for additional 6 days. Olympus microscope with phase contrast and 200× magnification was used for the cell monitoring.

With CC(=O)[C@H]1CC[C@H]2[C@@H]3CC[C@@H]4C[C@H](OC(=O)[C@@H](N)CCC(=O)O)CC[C@]4(C)[C@H]3CC[C@]12C [Example 9, 20-Oxo-5β-pregnan-3α-yl L-glutamyl 1-ester] the “hypolocomotion in open field after repeated social defeat” value (mice (ICR)) was “reduced a hypolocomotion in an open field induced by agonistic interactions in mice”, the “short-term body weight gain” value (Long-Evans male rats; 1 mg/kg i.p. (lower dose), 5 days) was “failed to affect short-term body weight gain” and the “time to spontaneous awakening” value (Long-Evans male rats; 100 mg/kg i.p.) was 4 h. The “short-term body weight gain” value (Long-Evans male rats; 100 mg/kg i.p. (higher dose), 5 days) was “tended to decrease it slightly”, the “locomotor activity on the day of application” value (Long-Evans male rats; 100 mg/kg i.p., 15 minutes after injection) was “decreased locomotor activity” and the anesthetic effect (Long-Evans male rats; 100 mg/kg i.p., 45 minutes after injection) was “gradually changed into anesthesia of animals”. The “weight of body organs (brain, heart, liver, spleen, kidneys)” value (Long-Evans male rats; 1 and 100 mg/kg i.p., autopsy on day 5) was “no differences between controls and animals treated with the compound from example 9”, the “signs of acute toxicity” value (Long-Evans male rats; rat, i.p., doses up to 100 mg/kg, 5 days) was “does not exhibit any signs of acute toxicity; also recorded: absense of any signs of acute toxicity” and the “anxiolytic effect, ultrasonic vocalization” value (rats; 0.001, 0.01 and 10 mg/kg i.p., 30 min prior to testing) was “slight dose-dependent anxiolytic effect”. The “total duration of ultrasonic vocalizations” value (rats; 10 mg/kg i.p.) was “Significant difference”, the “number of escapes (learned helplessness)” value (Long-Evans rats) was “significantly increased number of escapes” and the “effect on growth of glioma cells” value (C6 glioma cell line) was “overall slight cytostatic and pro-differentiation effect on glioma cells”.
